Values quoted from earlier work in publication PMC8339258 (Frontiers in Pharmacology, 2021).

For CC#CCn1c(N2CCC[C@@H](N)C2)nc2c1c(=O)n(Cc1nc(C)c3ccccc3n1)c(=O)n2C [linagliptin, (R)-8-(3-Amino-piperidin-1-yl)-7-but-2-ynyl-3-methyl-1-(4-methyl-quinazolin-2-ylmethyl)-3,7-dihydro-purine-2,6-dione], the t1/2 (comparison in discussion, ref not given) is listed as > 100 h and the terminal half-life (ref Hüttner et al., 2008, Heise et al., 2009, Blech al., 2010, Sarashina et al.) is listed as 142 h.
